Source: patent US20090030088A1, “Therapeutic benefits of gossypol, 6-methoxy gossypol, and 6,6'-dimothxy gossypol” (Clemson University, priority 2007, published 2009)

Legend:
[1] = DPPH free radical scavenging assay; settings: for concentration to scavenge 50% free radicals (IC50 value): DPPH in DCM, 30 min
Experimental: DPPH Free Radical Scavenging Assay. Scavenging activities on DPPH free radicals by gossypol and methoxy gossypol derivatives were determined according to the method of (9) with slight modification. The reaction mixture was made by mixing 0.4 mL of sample solution in DCM and same volume of 0.25 mM DPPH in DCM, shaken vigorously, incubated for 30 min in the dark at room temperature, and measured spectrophotometrically at 517 nm. BHT, a common used antioxidant, was used as a standard for comparison. The lower absorbance of reaction mixture indicated higher free radical scavenging activity, and the reduction of DPPH free radicals was calculated as following: […]

[2] = test system: Caco-2 (human colon cancer cell line); test: Cancer cell proliferation assay (CellTiter 96), Caco-2; type: cell-based; settings: 10 ppm
Experimental: (§1) Anticancer Activities. Three cancer cell lines, MCF-7 (human breast cancer cell line), Caco-2 (human colon cancer cell line) and SiHa (cervical cancer cell line) were purchased from American Type Culture Collection (ATCC) (Rockville, Md.). MCF-7 and SiHa were cultured in RPMI-1640 with L-glutamine (2 mM), sodium pyruvate (1 mM), penicillin (100 unit/mL), streptomycin (0.1 mg/mL), 0.1 mM non-essential amino acids, 2.0 g/L sodium bicarbonate and 10% newborn calf serum. For Caco-2 cells, 10% fetal bovine serum was added instead of 10% newborn calf serum. All cell lines were incubated at 37° C. with 5% CO2 and 90-100% relative humidity. Medium renewal was carried out 2-3 times per week, and cells were subcultured when they were about 80-90% confluence.
(§2) Prior to chemical treatment, 10^4 cells/well (100 μL) were seeded into a 96-well tissue culture plate, and allowed to attach for 24 hours, then treated with defined concentrations of the tested chemicals in DMSO. Negative controls were cells treated with DMSO only, and DMSO concentration was kept 2% in each well. After 24 hour incubation, cell proliferation was determined using the CellTiter 96® aqueous nonradioactivity cell proliferation assay according to the manufacture's recommendations (Promega, Madison, Wis.) and recorded on universal EL800 Bio-Tek microplate reader at 490 nm.

[3] = test system: SiHa (cervical cancer cell line); test: Cancer cell proliferation assay (CellTiter 96), SiHa; type: cell-based; settings: 10 ppm
Experimental: as §1, §2

[4] = test system: MCF-7 (human breast cancer cell line); test: Cancer cell proliferation assay (CellTiter 96), MCF-7; type: cell-based; settings: 10 ppm
Experimental: as §1, §2

Trypanosome brucei cells = test: Anti-trypanosomal activity, relative cell viability by flow cytometry; type: cell-based
Experimental: Anti-trypanosomal activities. Trypanosome brucei cells were grown in HMI-9 medium supplemented with 10% heat-inactivated fetal bovine serum and cultured as described by (13). Prior to treatment, 200 μL of the cells were seeded into 96-well tissue culture plate and treated with 2 μL of gossypol or methoxy gossypol derivatives dissolved in DMSO. After 24 hour incubation at 37° C. with 5% CO2 and 90-100% relative humidity, the cells were counted on a Becton Dickinson FACScan flow Cytometer, and the relative cell viability was calculated by comparing the vital cell number with control wells treated only with DMSO. Statistical Analysis. Each experiment was done at least three times, mean values were average of the triplicates, and the data were subjected to the analysis of variance (ANOVA).

plasmid DNA = test: DNA strand scission assay (H2O2/UV hydroxyl radicals); parameters: species or system E. coli; settings: no oxidative stress
Experimental: Analysis of DNA Strand Breakage. The DNA strand scission assay was performed as described by Keum et al., (11) with minor modifications. The plasmid DNA was prepared and purified from E. coli cultures by the method (12). The reaction mixture (15 μL) contained 10 mM Tris-HCl, 1 mM EDTA buffer (pH 8.0), plasmid DNA (1 μL), and H2O2 (0.04 M). Gossypol and methoxy gossypol derivatives dissolved in DMSO at the defined concentrations were added prior to H2O2 addition. Hydroxyl radicals were generated by irradiation of the reaction mixture at a distance of 30 cm with a 12 W UV lamp. After incubation at room temperature for 30 min, the reaction was stopped by adding a loading buffer (0.25% bromophenol blue tracking dye and 40% sucrose), and analyzed by 1% agarose gel electrophoresis. The gel was visualized by staining with ethidium bromide, and photographed on a transiluminator (Biorad).

SMILES: COc1c(O)c(C=O)c2c(O)c(-c3c(C)cc4c(C(C)C)c(OC)c(O)c(C=O)c4c3O)c(C)cc2c1C(C)C [6,6′-dimethoxy gossypol]
- concentration to scavenge 50% free radicals (IC50 value) [1]: 16.8 ppm
- free radicals scavenged ([1]; compound at 20 ppm): 60%
- cancer inhibitive activity compared with gossypol [2]: higher cancer inhibitive activity than gossypol
- cancer inhibitive activity compared with gossypol [3]: higher cancer inhibitive activity than gossypol
- cancer inhibitive activity compared with gossypol [4]: higher cancer inhibitive activity than gossypol

SMILES: COc1c(O)c(C=O)c2c(O)c(-c3c(C)cc4c(C(C)C)c(O)c(O)c(C=O)c4c3O)c(C)cc2c1C(C)C [6-methoxy gossypol]
- concentration to scavenge 50% free radicals (IC50 value) [1]: 16.4 ppm
- free radicals scavenged ([1]; compound at 20 ppm): 60%
- cancer inhibitive activity compared with gossypol [2]: higher cancer inhibitive activity than gossypol
- inhibition of trypanosome cell growth (Trypanosome brucei cells; 1 ppm, 24 hour incubation): 40%
- DNA damage by the presence of the chemical alone (plasmid DNA): did not cause the DNA damage
- cancer inhibitive activity compared with gossypol [3]: higher cancer inhibitive activity than gossypol
- cancer inhibitive activity compared with gossypol [4]: higher cancer inhibitive activity than gossypol

SMILES: Cc1cc(C(C)(C)C)c(O)c(C(C)(C)C)c1 [BHT, butylated hydroxytoluene, reference compound]
- free radicals scavenged ([1]; BHT at 1000 ppm): ~60%
- free radicals scavenged ([1]; BHT at 1500 ppm): 75%

SMILES: Cc1cc2c(C(C)C)c(O)c(O)c(C=O)c2c(O)c1-c1c(C)cc2c(C(C)C)c(O)c(O)c(C=O)c2c1O [gossypol]
- inhibition at 1 ppm (Trypanosome brucei cells; 24 h, read-out: inhibition of trypanosome cell growth): 40%
- DNA damage by the presence of the chemical alone (plasmid DNA): did not cause the DNA damage
